Experiments:
D(4) dopamine receptor = target: T1, D(4) dopamine receptor (Homo sapiens, UniProt P21917); assay: Displacement of [3H]spiperone from human Dopamine receptor D4
T1 sequence (P21917 whole entry): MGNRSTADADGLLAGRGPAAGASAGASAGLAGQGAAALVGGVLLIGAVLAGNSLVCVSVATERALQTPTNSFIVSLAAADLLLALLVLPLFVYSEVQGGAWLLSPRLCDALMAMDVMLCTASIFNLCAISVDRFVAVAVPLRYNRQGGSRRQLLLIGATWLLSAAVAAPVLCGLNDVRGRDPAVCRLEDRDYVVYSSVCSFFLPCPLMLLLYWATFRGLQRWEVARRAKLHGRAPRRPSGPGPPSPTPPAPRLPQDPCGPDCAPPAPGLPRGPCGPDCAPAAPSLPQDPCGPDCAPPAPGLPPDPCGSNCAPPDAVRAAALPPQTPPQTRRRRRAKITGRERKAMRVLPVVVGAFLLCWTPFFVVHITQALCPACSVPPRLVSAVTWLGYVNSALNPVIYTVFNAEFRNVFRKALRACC

D(3) dopamine receptor = D(3) dopamine receptor (Homo sapiens, UniProt P35462); assay: Displacement of [3H]7-OH-DPAT from human Dopamine receptor D3
Chain of D(3) dopamine receptor (P35462 as listed by the source): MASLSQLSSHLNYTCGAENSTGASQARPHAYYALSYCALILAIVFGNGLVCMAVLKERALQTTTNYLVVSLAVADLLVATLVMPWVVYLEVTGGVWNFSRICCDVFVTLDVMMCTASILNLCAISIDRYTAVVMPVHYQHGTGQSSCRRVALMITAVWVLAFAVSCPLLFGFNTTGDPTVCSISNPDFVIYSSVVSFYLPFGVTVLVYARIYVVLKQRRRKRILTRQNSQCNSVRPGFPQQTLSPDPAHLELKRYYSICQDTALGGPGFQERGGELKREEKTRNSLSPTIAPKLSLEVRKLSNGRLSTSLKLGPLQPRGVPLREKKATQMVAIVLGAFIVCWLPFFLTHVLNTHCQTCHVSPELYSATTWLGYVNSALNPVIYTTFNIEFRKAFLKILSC

pKi (D(4) dopamine receptor)	pKi (D(3) dopamine receptor)	SMILES
6.71	7.49	O=C(CCCN1CCC(CCO)(c2ccc(Cl)cc2)C1)c1ccc(F)cc1 (configuration not stated)
6.91	7.11	O=C(CCCN1CCC(C(O)c2ccc(Cl)cc2)CC1)c1ccc(F)cc1 (configuration not stated)
7.82	–	O=C(CCCN1CCC(c2ccc(Cl)cc2)C1)c1ccc(F)cc1 (configuration not stated)
7.62	6.78	O=C(CCCN1CCC(CO)(c2ccc(Cl)cc2)C1)c1ccc(F)cc1 (configuration not stated)
7.23	8.05	O=C(CCCN1CCC(O)(Cc2ccc(Cl)cc2)CC1)c1ccc(F)cc1

The next lines start with the compound.

SMILES	pKi (D(4) dopamine receptor)	pKi (D(3) dopamine receptor)
O=C(CCCN1CCC(CO)(c2ccc(Cl)cc2)CC1)c1ccc(F)cc1	7.11	6.96
O=C(CCCN1CCC(c2ccc(Cl)cc2)CC1)c1ccc(F)cc1	7.59	7.34
O=C(CCC[n+]1ccc(-c2ccc(Cl)cc2)cc1)c1ccc(F)cc1	< 6	< 6
CN(CCCC(=O)c1ccc(F)cc1)CCCC(O)c1ccc(Cl)cc1 (configuration not stated)	6.72	6.79

From BindingDB's records for doi:10.1021/jm0301033 (Florida A and M University, 2004)
